Values quoted from earlier work, collected in article PMC7559897, “Designed Antimicrobial Peptides Against Trauma-Related Cutaneous Invasive Fungal Wound Infections” (Journal of Fungi, 2020).

Experiments:
P. aeruginosa = settings: subinhibitory concentrations, growth at higher concentrations; cited from earlier work
Text: (§1) The rapid destruction of pathogenic cells by dAMPs infers a theoretical reduced likelihood of developing bacterial resistance. However, to confirm this, dAMPs were serially passaged against Candida and against both P. aeruginosa and S. aureus at subinhibitory concentrations to ascertain whether resistance, assessed by growth at higher concentrations, occurs. Resistance was not observed.

S. aureus = settings: subinhibitory concentrations, growth at higher concentrations; cited from earlier work
Text: as §1

In the case of `CNC(C)C1CCC(N)C(OC2C(N)CC(N)C(OC3OCC(C)(O)C(NC)C3O)C2O)O1` (centres unmarked) [Gentamicin], the “resistance during serial passaging against P. aeruginosa” value (P. aeruginosa) is given as “strong resistance”.
For `CCC[C@@H]1C[C@@H](C(=O)N[C@@H]([C@H]2O[C@H](SC)[C@H](O)[C@@H](O)[C@H]2O)[C@H](C)Cl)N(C)C1` [clindamycin], the “resistance during serial passaging against S. aureus” value (S. aureus) is given as “strong resistance”.
